Measured values from ChEMBL document CHEMBL1201862, “PubChem BioAssay data set” (2004).
The source made the active and inactive calls.

How the values were obtained:
[1] = molecular target: T1, Mannose-6-phosphate isomerase (Homo sapiens, UniProt P34949); experiment: inhibitors of human PMI, primary screen, biochemical, fluorescence intensity, coupled assay (AID 1209)
T1 sequence (P34949 whole entry): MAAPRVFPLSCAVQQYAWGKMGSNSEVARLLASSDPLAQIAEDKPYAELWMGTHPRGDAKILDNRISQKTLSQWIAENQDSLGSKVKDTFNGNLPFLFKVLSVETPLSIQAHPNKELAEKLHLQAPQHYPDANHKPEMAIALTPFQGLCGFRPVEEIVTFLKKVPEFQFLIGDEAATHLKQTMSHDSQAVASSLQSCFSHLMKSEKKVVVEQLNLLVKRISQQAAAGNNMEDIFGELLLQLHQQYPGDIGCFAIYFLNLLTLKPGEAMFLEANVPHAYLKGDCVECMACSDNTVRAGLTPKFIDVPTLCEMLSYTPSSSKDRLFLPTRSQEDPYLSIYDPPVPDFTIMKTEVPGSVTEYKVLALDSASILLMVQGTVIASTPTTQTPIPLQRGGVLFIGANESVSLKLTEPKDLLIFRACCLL

[2] = molecular target: T2, Peroxisome proliferator-activated receptor gamma/Nuclear receptor coactivator 3 (Homo sapiens, UniProt P37231); format: functional
T2 sequence (P37231 whole entry): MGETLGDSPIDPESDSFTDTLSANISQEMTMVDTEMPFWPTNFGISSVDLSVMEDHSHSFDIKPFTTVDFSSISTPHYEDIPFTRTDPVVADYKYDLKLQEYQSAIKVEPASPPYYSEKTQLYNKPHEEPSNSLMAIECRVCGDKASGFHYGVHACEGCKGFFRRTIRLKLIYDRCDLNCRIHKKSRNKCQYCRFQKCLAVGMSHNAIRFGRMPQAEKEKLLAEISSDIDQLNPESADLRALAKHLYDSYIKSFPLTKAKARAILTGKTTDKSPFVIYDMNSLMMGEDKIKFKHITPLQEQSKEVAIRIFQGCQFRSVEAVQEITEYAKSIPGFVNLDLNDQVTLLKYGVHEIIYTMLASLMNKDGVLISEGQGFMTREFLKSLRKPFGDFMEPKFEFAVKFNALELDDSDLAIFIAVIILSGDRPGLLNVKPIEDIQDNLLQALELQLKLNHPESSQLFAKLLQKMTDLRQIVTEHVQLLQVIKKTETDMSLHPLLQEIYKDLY
T2 sequence (Q9Y6Q9 whole entry, further chain): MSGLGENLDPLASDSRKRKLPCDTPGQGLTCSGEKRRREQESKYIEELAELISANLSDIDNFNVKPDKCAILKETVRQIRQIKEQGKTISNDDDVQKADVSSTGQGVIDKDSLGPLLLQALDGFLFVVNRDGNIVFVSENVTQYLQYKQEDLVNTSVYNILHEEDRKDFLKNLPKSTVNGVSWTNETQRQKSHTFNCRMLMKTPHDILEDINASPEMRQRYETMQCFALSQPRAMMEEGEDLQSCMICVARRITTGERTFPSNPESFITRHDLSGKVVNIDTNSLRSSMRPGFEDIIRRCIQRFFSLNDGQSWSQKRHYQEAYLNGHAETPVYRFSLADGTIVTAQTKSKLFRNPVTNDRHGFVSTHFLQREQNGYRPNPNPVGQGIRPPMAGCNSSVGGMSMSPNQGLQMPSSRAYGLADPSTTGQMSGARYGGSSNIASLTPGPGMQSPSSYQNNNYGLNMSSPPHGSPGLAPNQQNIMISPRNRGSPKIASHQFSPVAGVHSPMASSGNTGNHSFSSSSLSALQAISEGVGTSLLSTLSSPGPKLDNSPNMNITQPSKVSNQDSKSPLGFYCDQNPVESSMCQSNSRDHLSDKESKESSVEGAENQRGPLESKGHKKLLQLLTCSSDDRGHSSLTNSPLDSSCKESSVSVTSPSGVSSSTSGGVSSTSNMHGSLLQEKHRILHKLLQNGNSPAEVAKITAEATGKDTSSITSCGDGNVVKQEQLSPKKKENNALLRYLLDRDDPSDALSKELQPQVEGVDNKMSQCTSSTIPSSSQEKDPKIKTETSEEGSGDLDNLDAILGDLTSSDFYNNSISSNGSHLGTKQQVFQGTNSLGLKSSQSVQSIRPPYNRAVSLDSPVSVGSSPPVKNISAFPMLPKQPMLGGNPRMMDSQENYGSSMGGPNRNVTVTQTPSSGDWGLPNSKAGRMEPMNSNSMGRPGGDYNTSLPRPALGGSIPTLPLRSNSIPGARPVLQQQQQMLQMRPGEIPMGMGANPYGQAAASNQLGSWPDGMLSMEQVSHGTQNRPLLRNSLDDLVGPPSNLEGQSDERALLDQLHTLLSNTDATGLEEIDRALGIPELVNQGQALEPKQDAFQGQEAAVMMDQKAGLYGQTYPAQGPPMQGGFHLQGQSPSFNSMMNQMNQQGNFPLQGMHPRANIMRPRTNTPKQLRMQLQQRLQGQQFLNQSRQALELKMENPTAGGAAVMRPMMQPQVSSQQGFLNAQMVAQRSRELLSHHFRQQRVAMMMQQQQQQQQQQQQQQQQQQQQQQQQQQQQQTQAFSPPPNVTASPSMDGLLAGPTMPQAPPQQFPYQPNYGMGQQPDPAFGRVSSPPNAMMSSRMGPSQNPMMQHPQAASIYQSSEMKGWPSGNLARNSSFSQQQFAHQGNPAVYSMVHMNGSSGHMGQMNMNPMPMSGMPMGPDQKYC

[3] = molecular target: T3, Peroxisome proliferator-activated receptor gamma/Nuclear receptor coactivator 1 (Homo sapiens, UniProt P37231); format: functional
[4] = molecular target: T4, Peroxisome proliferator-activated receptor gamma/Nuclear receptor coactivator 2 (Homo sapiens, UniProt P37231); format: functional
T4 sequence (P37231 whole entry): as the sequence (P37231 whole entry) above
T4 sequence (Q15596 whole entry, further chain): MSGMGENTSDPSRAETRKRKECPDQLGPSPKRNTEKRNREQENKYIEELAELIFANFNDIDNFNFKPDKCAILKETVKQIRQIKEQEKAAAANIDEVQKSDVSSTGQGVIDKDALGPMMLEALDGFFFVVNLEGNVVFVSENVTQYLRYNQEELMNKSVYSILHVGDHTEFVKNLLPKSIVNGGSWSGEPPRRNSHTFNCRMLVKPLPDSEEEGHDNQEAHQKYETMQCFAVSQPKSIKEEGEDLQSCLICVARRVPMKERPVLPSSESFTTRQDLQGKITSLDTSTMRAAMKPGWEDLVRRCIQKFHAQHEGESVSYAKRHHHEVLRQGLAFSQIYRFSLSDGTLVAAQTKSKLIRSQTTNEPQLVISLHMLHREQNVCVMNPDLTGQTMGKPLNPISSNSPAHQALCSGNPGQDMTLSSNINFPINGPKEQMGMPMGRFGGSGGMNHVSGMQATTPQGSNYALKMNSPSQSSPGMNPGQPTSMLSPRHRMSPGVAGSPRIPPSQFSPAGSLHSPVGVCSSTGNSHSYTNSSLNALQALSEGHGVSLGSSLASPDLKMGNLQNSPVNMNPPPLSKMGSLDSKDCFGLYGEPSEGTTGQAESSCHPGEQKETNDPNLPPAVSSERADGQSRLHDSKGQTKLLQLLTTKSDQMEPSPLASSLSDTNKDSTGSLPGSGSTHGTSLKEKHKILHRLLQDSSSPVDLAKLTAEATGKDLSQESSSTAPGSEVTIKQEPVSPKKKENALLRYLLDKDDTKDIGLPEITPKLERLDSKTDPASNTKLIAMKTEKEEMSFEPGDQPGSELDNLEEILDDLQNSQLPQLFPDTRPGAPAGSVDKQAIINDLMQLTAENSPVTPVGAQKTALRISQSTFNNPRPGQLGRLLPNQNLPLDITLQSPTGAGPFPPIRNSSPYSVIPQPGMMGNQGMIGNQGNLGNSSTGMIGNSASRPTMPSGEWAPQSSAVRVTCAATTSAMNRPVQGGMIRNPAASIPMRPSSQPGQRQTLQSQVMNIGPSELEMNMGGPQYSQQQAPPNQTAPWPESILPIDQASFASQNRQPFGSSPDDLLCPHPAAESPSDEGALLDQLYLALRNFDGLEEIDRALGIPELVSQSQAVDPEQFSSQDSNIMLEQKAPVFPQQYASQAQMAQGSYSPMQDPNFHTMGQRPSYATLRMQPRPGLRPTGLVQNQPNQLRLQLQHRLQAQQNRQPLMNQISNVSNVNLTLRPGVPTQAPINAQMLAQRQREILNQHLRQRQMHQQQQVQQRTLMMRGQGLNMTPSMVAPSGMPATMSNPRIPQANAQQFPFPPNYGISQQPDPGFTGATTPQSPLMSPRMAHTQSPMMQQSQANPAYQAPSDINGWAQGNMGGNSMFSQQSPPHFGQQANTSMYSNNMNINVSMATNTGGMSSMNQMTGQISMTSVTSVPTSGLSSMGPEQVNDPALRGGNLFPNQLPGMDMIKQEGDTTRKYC

Estrogen receptor beta = Estrogen receptor beta (Homo sapiens, UniProt Q92731);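 also: recombinant ER-beta bound to coactivator SRC1 peptide in presence of estradiol agonist; inhibitors block coactivator peptide binding and lower the FRET signal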
Estrogen receptor beta, sequence (Q92731 whole entry): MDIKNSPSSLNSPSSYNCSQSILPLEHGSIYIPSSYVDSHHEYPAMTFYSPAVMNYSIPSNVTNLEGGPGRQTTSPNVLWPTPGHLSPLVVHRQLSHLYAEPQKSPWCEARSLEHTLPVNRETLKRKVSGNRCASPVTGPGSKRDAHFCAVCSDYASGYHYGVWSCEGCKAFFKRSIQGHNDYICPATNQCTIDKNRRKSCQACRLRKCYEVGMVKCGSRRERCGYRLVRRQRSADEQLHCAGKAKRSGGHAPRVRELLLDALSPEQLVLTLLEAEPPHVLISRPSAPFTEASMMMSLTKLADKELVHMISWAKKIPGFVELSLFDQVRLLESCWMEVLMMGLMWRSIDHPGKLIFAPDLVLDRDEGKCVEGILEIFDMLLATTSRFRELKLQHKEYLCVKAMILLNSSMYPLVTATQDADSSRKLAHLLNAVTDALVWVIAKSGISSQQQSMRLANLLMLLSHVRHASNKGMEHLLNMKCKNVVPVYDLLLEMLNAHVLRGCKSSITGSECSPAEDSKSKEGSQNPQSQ

[5] = Luminescence Cell-Based Dose Retest to Confirm Inhibitors of Cancer Stem Cells. [Related pubchem assays (depositor defined):AID2717, AID2721]; format: functional; conditions: Homo sapiens
[6] = cytotoxicity in HEK-293T cells, dose response, cytotoxicity control for TCR NF-kB inhibitor project, luminescence, T-cell screen hits (AID 489026); format: functional, cell-based;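 also: cells exposed to compound about 14 hours before the viability readout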
HEK293 [7] = experiment: cells; conditions: Homo sapiens
HEK293 [8] = experiment: cells; conditions: Homo sapiens; remark: listed apart in the source
[9] = THP-1 cell cytotoxicity, dose response, cytotoxicity control for Vif-APOBEC3G degradation inhibitor project, THP-1 cells (AID 1117359); format: functional; conditions: Human immunodeficiency virus 1, THP-1
Protein Tat = molecular target: T5, Protein Tat (Human immunodeficiency virus type 1 group M subtype B (isolate HXB2)(HIV-1), UniProt P04608); format: functional;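 also: tat binding to TAR RNA read out by fluorescence polarization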
T5 sequence (P04608 whole entry): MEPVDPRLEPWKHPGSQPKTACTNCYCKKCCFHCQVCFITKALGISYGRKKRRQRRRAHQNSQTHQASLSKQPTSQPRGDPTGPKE

[10] = molecular target: T6, Rac GTPase-activating protein 1 (Homo sapiens, UniProt Q9H0H5); experiment: MgcRacGAP GTPase-activating activity inhibitors, confirmation, biochemical, ADP Hunter fluorescence, primary and confirmatory (AID 624330); format: functional
T6 sequence (Q9H0H5 whole entry): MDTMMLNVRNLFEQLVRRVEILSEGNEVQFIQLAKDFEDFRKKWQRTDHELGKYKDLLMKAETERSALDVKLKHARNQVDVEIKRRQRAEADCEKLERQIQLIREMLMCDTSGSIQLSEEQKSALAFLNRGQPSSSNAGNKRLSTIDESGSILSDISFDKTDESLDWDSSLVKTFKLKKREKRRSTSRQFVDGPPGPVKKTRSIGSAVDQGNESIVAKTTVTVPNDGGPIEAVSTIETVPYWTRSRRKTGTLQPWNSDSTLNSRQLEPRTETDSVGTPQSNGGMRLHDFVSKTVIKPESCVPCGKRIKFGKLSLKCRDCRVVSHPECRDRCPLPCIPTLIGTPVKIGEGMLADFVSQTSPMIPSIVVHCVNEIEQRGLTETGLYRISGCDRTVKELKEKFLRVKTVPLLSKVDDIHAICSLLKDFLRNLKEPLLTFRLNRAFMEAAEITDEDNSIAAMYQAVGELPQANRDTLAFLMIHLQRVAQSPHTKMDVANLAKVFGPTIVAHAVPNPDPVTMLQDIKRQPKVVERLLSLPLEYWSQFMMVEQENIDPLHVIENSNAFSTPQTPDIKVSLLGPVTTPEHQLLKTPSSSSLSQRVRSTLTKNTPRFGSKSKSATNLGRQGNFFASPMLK

[11] = A cytotoxicity screen of small molecule inhibitors of the PhoP region in Salmonella typhi identified in the primary screen. [Related pubchem assays: 1850, 1864, 1985 ]; format: functional
[12] = Luminescence Cell-Based Dose Confirmation HTS to Identify Inhibitors of Platelet Dense Granule Release. [Related pubchem assays: 1663 (Primary HTS), 1678 (Summary of Project)]; format: functional
[13] = inhibitors of SNCA 5'UTR-driven reporter translation, confirmation, H4 neuroglioma cells, luminescence (AID 1988); format: functional, cell-based
[14] = Luminescence Cell-Based Dose Response HTS to Identify Inhibitors of 5'UTR Stem-Loop Driven Prion Protein mRNA Translation in H4 Neuroglioblastoma Cells. [Related pubchem assays: 1827 (Project Summary), 1813 (Primary HTS)]; format: functional
[15] = molecular target: Luciferin 4-monooxygenase (Photinus pyralis, UniProt P08659); experiment: firefly luciferase enzyme inhibitors, dose response, biochemical, luminescence (AID 1891)
Luciferin 4-monooxygenase, sequence (P08659 whole entry): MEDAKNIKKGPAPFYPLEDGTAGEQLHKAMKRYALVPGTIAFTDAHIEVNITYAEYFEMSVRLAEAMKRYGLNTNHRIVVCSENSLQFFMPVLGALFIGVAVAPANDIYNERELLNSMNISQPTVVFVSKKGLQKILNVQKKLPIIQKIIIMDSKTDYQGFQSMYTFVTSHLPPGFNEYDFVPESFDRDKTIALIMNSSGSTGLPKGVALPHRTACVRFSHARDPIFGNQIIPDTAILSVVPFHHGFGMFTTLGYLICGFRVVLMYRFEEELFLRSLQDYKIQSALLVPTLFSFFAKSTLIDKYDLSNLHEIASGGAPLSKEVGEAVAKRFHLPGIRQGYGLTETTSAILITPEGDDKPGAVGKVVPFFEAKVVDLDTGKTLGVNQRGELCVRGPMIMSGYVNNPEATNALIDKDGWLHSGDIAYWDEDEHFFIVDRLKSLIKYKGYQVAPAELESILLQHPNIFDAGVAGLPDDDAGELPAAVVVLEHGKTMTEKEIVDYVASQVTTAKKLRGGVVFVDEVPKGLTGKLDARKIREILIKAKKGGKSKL

[16] = inhibitors of firefly luciferase expression or activity, dose response, H4 neuroglioma cells, luminescence (AID 1990); format: functional, cell-based
[17] = molecular target: T7, High affinity choline transporter 1 (Homo sapiens, UniProt Q9GZV3); experiment: CHT inhibitors, dose response, cell-based, 5-point CRC, membrane potential dye (AID 504840); format: functional
T7 sequence (Q9GZV3 whole entry): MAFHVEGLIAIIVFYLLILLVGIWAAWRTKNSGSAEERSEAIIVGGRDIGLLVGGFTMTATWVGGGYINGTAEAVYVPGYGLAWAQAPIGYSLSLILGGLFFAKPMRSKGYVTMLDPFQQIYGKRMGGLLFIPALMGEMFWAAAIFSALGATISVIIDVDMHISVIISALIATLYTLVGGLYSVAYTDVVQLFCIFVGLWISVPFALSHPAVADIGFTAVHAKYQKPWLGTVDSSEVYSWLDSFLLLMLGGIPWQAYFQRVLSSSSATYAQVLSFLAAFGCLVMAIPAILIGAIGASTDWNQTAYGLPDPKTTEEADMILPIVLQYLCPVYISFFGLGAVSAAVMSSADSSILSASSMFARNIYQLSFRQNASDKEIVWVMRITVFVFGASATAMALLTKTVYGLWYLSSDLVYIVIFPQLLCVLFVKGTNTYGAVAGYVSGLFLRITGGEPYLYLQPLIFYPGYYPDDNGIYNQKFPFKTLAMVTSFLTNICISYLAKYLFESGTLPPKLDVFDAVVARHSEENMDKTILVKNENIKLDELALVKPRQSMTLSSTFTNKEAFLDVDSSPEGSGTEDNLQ

[18] = molecular target: T3, Peroxisome proliferator-activated receptor gamma/Nuclear receptor coactivator 1; experiment: TR-FRET dose response biochemical High Throughput Screening assay for agonists of the steroid receptor coactivator 1 (SRC-1) recruitment by the peroxisome proliferator-activated receptor gamma (PPAR gamma): non-selective agonists. [Related pubchem assays (depositor defined):AID1300, AID1808, AID504735, AID631]; format: protein assay
[19] = molecular target: T4, Peroxisome proliferator-activated receptor gamma/Nuclear receptor coactivator 2; experiment: (§1) TR-FRET dose response biochemical High Throughput Screening assay for agonists of the steroid receptor coactivator 2 (SRC-2) recruitment by the peroxisome proliferator-activated receptor gamma (PPAR gamma): non-selective agonists. [Related pubchem assays: 1297, 1032 ]; format: functional
[20] = molecular target: T2, Peroxisome proliferator-activated receptor gamma/Nuclear receptor coactivator 3; experiment: as §1, with “3 (SRC-3)” for “2 (SRC-2)”, “1301 (Confirmation screen.), 1048 (Primary screen.)]” for “1297, 1032 ]”; format: functional
Cytochrome P450 2D6 = Cytochrome P450 2D6 (Homo sapiens, UniProt P10635);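 also: CYP2D6 member of a cytochrome P450 panel assay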
Cytochrome P450 1A2 = molecular target: T8, Cytochrome P450 1A2 (Homo sapiens, UniProt P05177);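 also: PubChem cytochrome P450 panel assay, CYP1A2 panel member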
T8 sequence (P05177 whole entry): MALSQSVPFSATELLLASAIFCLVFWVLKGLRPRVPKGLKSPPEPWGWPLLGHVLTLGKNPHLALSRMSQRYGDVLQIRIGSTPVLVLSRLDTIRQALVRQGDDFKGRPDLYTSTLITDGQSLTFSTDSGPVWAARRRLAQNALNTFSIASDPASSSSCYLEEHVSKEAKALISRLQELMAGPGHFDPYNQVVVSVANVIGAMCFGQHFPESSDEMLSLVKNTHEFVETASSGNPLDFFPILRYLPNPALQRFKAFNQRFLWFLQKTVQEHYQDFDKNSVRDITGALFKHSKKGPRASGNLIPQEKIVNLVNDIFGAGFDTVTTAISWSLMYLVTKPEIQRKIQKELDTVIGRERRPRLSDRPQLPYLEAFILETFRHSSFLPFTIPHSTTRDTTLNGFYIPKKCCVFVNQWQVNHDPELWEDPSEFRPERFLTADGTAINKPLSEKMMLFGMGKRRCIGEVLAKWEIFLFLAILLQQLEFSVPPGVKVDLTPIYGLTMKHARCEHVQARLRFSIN

With `COc1ccccc1CSc1nc(-c2ccc([N+](=O)[O-])cc2)c[nH]1` the IC50 [1] was > 50 µM (not active).

For `Cc1ccc(-c2ccc(/C=C(\C#N)C(N)=S)o2)c([N+](=O)[O-])c1`, the EC50 [2] was > 79.4 µM (not active), the EC50 [3] was > 79.4 µM (not active) and the EC50 [4] was > 79.4 µM (not active).

For `Cn1c(=O)c2c(ncn2CCCNC2=CC(C)(C)CC(=O)C2)n(C)c1=O`, the IC50 (Estrogen receptor beta) was > 50 µM (not active).

With `COc1ccc([N+](=O)[O-])cc1Nc1c2ccccc2nc2ccccc12` the AC50 [5] was 0.956 µM (active), the IC50 [6] was > 80 µM (inactive) and the EC50 (HEK293 [7]) was > 59.6 µM (inactive). The EC50 (HEK293 [8]) was > 59.6 µM (inactive).

In the case of `Cc1cc(C)cc(NCc2cc3c(cc2[N+](=O)[O-])OCO3)c1`, the CC50 [9] is reported as > 40 µM (active) and the IC50 (Protein Tat) is reported as > 100 µM (inconclusive).

For `C/C(=C\C(=O)c1cccnc1)Nc1ccc(O)cc1`, the IC50 (Protein Tat) was 26.2 µM (inconclusive) and the IC50 [10] was 14.7 µM (active).

In the case of `Oc1ncnc2c1c(-c1ccccc1)cn2-c1ccc(F)cc1`, the EC50 (HEK293 [7]) is reported as > 59.6 µM (inactive) and the EC50 (HEK293 [8]) is reported as > 59.6 µM (inactive).

For `COc1ccc(N2C(=O)CC(N3CC=C(c4ccccc4)CC3)C2=O)cc1` (centres undefined), the EC50 [11] was > 50 µM (active).

For `COc1ccc(-c2noc(-c3ccc(Br)o3)n2)cc1OC`, the EC50 [2] was 68.6 µM (not active), the EC50 [3] was 64.1 µM (not active) and the EC50 [4] was 63 µM (not active).

With `COc1ccc(CNCC(O)COc2ccc(C)cc2[N+](=O)[O-])cc1` (centres undefined) the EC50 [11] was > 50 µM (active).

In the case of `COc1cc2c(cc1OC)-c1cc(NC3CCCCCCC3)nc(=O)n1CC2`, the EC50 [12] is reported as 6.92 µM (active), the EC50 [13] is reported as > 120 µM (not active) and the EC50 [14] is reported as 0.18 µM (active). The EC50 [15] was > 112 µM (not active), the EC50 [16] was 28.4 µM (active) and the IC50 [17] was 7.99 µM (active). The EC50 (HEK293 [7]) was > 59.7 µM (inactive) and the EC50 (HEK293 [8]) was > 59.7 µM (inactive).

With `CCCC(=O)Nc1nc(C)c(C(C)=O)s1` the EC50 [18] was > 79.4 µM (inactive), the EC50 [19] was 137 µM (not active) and the EC50 [20] was > 79.4 µM (not active).

For `CC(C)CNC(CC(=O)O)c1ccccc1` (centres undefined), the EC50 [11] was > 50 µM (active).

With `Cc1ccc(C2=NN=C(NC(=O)C(F)(F)F)SC2)cc1` the IC50 [1] was > 50 µM (not active).

For `Cc1ccc(C)c(Cn2c(=O)n(-c3ccc(CC(=O)NCc4ccco4)cc3)c(=O)c3sccc32)c1`, the IC50 (Estrogen receptor beta) was > 50 µM (not active).

For `Cc1ccc2nc(SCC(=O)NCc3cccs3)c(C#N)cc2c1`, the EC50 [2] was 20.8 µM (not active), the AC50 (Cytochrome P450 2D6) was 0.316 µM (inconclusive) and the EC50 [3] was 19 µM (not active). For the same molecule, the AC50 (Cytochrome P450 1A2) was 0.708 µM (inconclusive) and the EC50 [4] was 11.6 µM (not active).
